Measurements reported in ChEMBL document CHEMBL4376898, “Enhanced Activity against Multidrug-Resistant Bacteria through Coapplication of an Analogue of Tachyplesin I and an Inhibitor of the QseC/B Signaling Pathway” (J Med Chem, 2020).
≈ marks a conversion by molar mass, not a printed value. Calls of active or inactive are those of the source. The calls are words filed in the database; no cut-off is given here.

Key:
Acinetobacter baumannii [1] = test: Bactericidal activity against Acinetobacter baumannii ATCC 19606; format: functional; details: ATCC 19606 = CIP 70.34 = JCM 6841
Enterococcus faecium [2] = test: Bactericidal activity against Enterococcus […] ATCC 29212; format: functional
Klebsiella pneumoniae [3] = test: Antimicrobial activity against Klebsiella pneumoniae BAA 1144 assessed as inhibition of visible growth incubated for 18 hrs; format: functional; details: BAA 1144, 18 h
Shigella flexneri = test: Bactericidal activity against Shigella flexneri ATCC 29903; format: functional
[4] = Antimicrobial activity against Lysobacter enzymogenes YC36 assessed as inhibition of visible growth measured after 7th generation exposure to compound by continuous repeated transfer assay (reference value: 8 ug/ml); format: functional
[5] = Antimicrobial activity against Lysobacter enzymogenes YC36 assessed as inhibition of visible growth measured after 7th generation exposure to compound by continuous repeated transfer assay (reference value: 4 ug/ml); format: functional
Bacillus subtilis [6] = test: Bactericidal activity against Bacillus subtilis 168; format: functional
[7] = Antimicrobial activity against Lysobacter enzymogenes YC36 assessed as inhibition of visible growth measured after 7th generation exposure to compound by continuous repeated transfer assay relative to before passage; format: functional
Pseudomonas aeruginosa [8] = test: Antimicrobial activity against Pseudomonas aeruginosa ATCC 27853 assessed as inhibition of visible growth incubated for 18 hrs; format: functional; details: ATCC 27853, 18 h
Klebsiella pneumoniae [9] = test: Antimicrobial activity against Klebsiella pneumoniae BAA 2470 assessed as inhibition of visible growth incubated for 18 hrs; format: functional; details: BAA 2470, 18 h
Pseudomonas aeruginosa [10] = test: Bactericidal activity against Pseudomonas aeruginosa ATCC 27853; format: functional
Enterococcus faecium [11] = test: Antimicrobial activity against Enterococcus […] ATCC 29212 assessed as inhibition of visible growth incubated for 18 hrs; format: functional; details: ATCC 29212, 18 h
Acinetobacter baumannii [12] = test: Antimicrobial activity against Acinetobacter baumannii ATCC 19606 assessed as inhibition of visible growth incubated for 18 hrs; format: functional; details: ATCC 19606 = CIP 70.34 = JCM 6841, 18 h
Escherichia coli [13] = test: Bactericidal activity against Escherichia coli K-12; format: functional
Bacillus subtilis [14] = test: Antimicrobial activity against Bacillus subtilis 168 assessed as inhibition of visible growth incubated for 18 hrs; format: functional; details: Bacillus subtilis, 168, 18 h
Enterobacter cloacae = test: Antimicrobial activity against Enterobacter cloacae BAA 1143 assessed as inhibition of visible growth incubated for 18 hrs; format: functional; details: BAA 1143, 18 h
Staphylococcus aureus [15] = test: Bactericidal activity against Staphylococcus aureus ATCC 29213; format: functional
[16] = Bactericidal activity against Lysobacter enzymogenes YC36 with delta qseB mutant assessed as killing of bacterial cells at 2 ug/ml relative to control; format: functional
Escherichia coli [17] = test: Antimicrobial activity against Escherichia coli ATCC 25923 assessed as inhibition of visible growth incubated for 18 hrs; format: functional; details: ATCC 25923, 18 h
Pseudomonas aeruginosa [18] = test: Antimicrobial activity against Pseudomonas aeruginosa BAA 2108 assessed as inhibition of visible growth incubated for 18 hrs; format: functional; details: BAA 2108, 18 h
Escherichia coli [19] = test: Antimicrobial activity against Escherichia coli K-12 assessed as inhibition of visible growth incubated for 18 hrs; format: functional; details: K-12, 18 h
[20] = Bactericidal activity against Lysobacter enzymogenes YC36 with delta qseC mutant assessed as killing of bacterial cells at 2 ug/ml relative to control; format: functional
Escherichia coli [21] = test: Antimicrobial activity against Escherichia coli BAA 2469 assessed as inhibition of visible growth incubated for 18 hrs; format: functional; details: BAA 2469, 18 h
Staphylococcus aureus [22] = test: Antimicrobial activity against Staphylococcus aureus BAA 44 assessed as inhibition of visible growth incubated for 18 hrs; format: functional; details: BAA 44, 18 h
Staphylococcus aureus [23] = test: Antimicrobial activity against Staphylococcus aureus ATCC 29213 assessed as inhibition of visible growth incubated for 18 hrs; format: functional; details: ATCC 29213, 18 h
Staphylococcus aureus [24] = test: Antimicrobial activity against Staphylococcus aureus BAA 41 assessed as inhibition of visible growth incubated for 18 hrs; format: functional; details: BAA 41, 18 h
[25] = Bactericidal activity against Lysobacter enzymogenes YC36; format: functional
[26] = Stability in human plasma assessed as parent compound remaining at […] measured after 6 hrs by HPLC analysis; format: ADME, cell-free; details: read-out: Stability
[27] = Stability in human plasma assessed as parent compound remaining at […] measured after 2 hrs by HPLC analysis; format: ADME, cell-free; details: read-out: Stability
L02 [28] = test: Cytotoxicity in human L02 cells assessed as reduction in cell viability at <32 ug/ml incubated for 48 hrs by resazurin dye based assay; details: l02, 48 h
[29] = Toxicity in human erythrocytes assessed as induction of hemolysis at 16 ug/ml incubated for 1 hr by spectrometry; format: cell-based, Erythrocyte; details: read-out: Activity
L02 [30] = test: Cytotoxicity in human L02 cells assessed as reduction in cell viability at >64 ug/ml incubated for 48 hrs by resazurin dye based assay; details: l02, 48 h
Erythrocyte [31] = test: Toxicity in human erythrocytes assessed as induction of hemolysis at <50 ug/ml incubated for 1 hr by spectrometry; format: cell-based
Erythrocyte [32] = test: Toxicity in human erythrocytes assessed as induction of hemolysis incubated for 1 hr by spectrometry; format: cell-based
Lysobacter enzymogenes [33] = test: Bactericidal activity against Lysobacter enzymogenes YC36 at 4 ug/ml; format: functional
Erythrocyte [34] = test: Toxicity in human erythrocytes assessed as induction of hemolysis incubated for 1 hr by visual absorption spectroscopy; format: cell-based
Lysobacter enzymogenes [35] = test: Antimicrobial activity against Lysobacter enzymogenes YC36 assessed as inhibition of visible growth incubated for 18 hrs; format: functional
[36] = Stability in human plasma assessed as parent compound degradation at […] measured after 6 hrs by HPLC analysis; format: ADME, cell-free; details: read-out: Drug degradation

| SMILES | MBC (Acinetobacter baumannii [1]) [µg/mL] | MBC (Enterococcus faecium [2]) [µg/mL] | MIC (Klebsiella pneumoniae [3]) [µg/mL] | MBC (Shigella flexneri) [µg/mL] | MBC (Bacillus subtilis [6]) [µg/mL] | fold change (FC) [7] | MIC (Pseudomonas aeruginosa [8]) [µg/mL] | MIC (Klebsiella pneumoniae [9]) [µg/mL] | MBC (Pseudomonas aeruginosa [10]) [µg/mL] | MIC (Enterococcus faecium [11]) [µg/mL] | MIC (Acinetobacter baumannii [12]) [µg/mL] | MBC (Escherichia coli [13]) [µg/mL] | MIC (Bacillus subtilis [14]) [µg/mL] | MIC (Enterobacter cloacae) [µg/mL] | MBC (Staphylococcus aureus [15]) [µg/mL] | MIC (Escherichia coli [17]) [µg/mL] | MIC (Pseudomonas aeruginosa [18]) [µg/mL] | MIC (Escherichia coli [19]) [µg/mL] | MIC (Escherichia coli [21]) [µg/mL] | MIC (Staphylococcus aureus [22]) [µg/mL] | also measured |
| --- | --- | --- | --- | --- | --- | --- | --- | --- | --- | --- | --- | --- | --- | --- | --- | --- | --- | --- | --- | --- | --- |
| CC[C@@H](C)[C@H]1NC(=O)CNC(=O)[C@@H](CCCNC(=N)N)NC(=O)[C@@H](Cc2ccc(O)cc2)NC(=O)[C@H]2CSSC[C@@H](NC1=O)C(=O)N[C@H](Cc1ccc(O)cc1)C(=O)N[C@H](CCCNC(=N)N)C(=O)N[C@H](CCCNC(=N)N)C(=O)N[C@@H](C(=O)N[C@H](CCCNC(=N)N)C(N)=O)CSSC[C@@H](NC(=O)[C@@H](Cc1c[nH]c3ccccc13)NC(=O)[C@H](N)CCCCN)C(=O)N[C@H](Cc1ccccc1)C(=O)N[C@H](CCCNC(=N)N)C(=O)N[C@H](C(C)C)C(=O)N2 [listing 1 of 2 here] | 16 to 64 (≈ 7.07 to 28.3 µM) | 16 to 64 (≈ 7.07 to 28.3 µM) | 16 (≈ 7.07 µM) | 16 to 64 (≈ 7.07 to 28.3 µM) | 16 to 64 (≈ 7.07 to 28.3 µM) | 4 | 8 to 16 (≈ 3.53 to 7.07 µM) | 16 (≈ 7.07 µM) | 16 to 64 (≈ 7.07 to 28.3 µM) | 4 (≈ 1.77 µM) | 8 (≈ 3.53 µM) | 16 to 64 (≈ 7.07 to 28.3 µM) | 4 (≈ 1.77 µM) | 8 (≈ 3.53 µM) | 16 to 64 (≈ 7.07 to 28.3 µM) | 8 (≈ 3.53 µM) | 8 (≈ 3.53 µM) | 8 (≈ 3.53 µM) | 8 (≈ 3.53 µM) | 4 (≈ 1.77 µM) | MIC [4]: 16 µg/mL (≈ 7.07 µM); MIC [5]: 16 µg/mL (≈ 7.07 µM); Activity [16]: <=100%; Activity [20]: <=100%; MIC (Staphylococcus aureus [23]): 8 µg/mL (≈ 3.53 µM); MIC (Staphylococcus aureus [24]): 4 µg/mL (≈ 1.77 µM); MBC [25]: 16 to 64 µg/mL (≈ 7.07 to 28.3 µM) |
| CC[C@@H](C)[C@H]1NC(=O)CNC(=O)[C@@H](CCCNC(=N)N)NC(=O)[C@@H](Cc2ccc(O)cc2)NC(=O)[C@H]2CSSC[C@@H](NC1=O)C(=O)N[C@H](Cc1ccc(O)cc1)C(=O)N[C@H](CCCNC(=N)N)C(=O)N[C@H](CCCNC(=N)N)C(=O)N[C@@H](C(=O)N[C@H](CCCNC(=N)N)C(N)=O)CSSC[C@@H](NC(=O)[C@@H](Cc1c[nH]c3ccccc13)NC(=O)[C@H](N)CCCCN)C(=O)N[C@H](Cc1ccccc1)C(=O)N[C@H](CCCNC(=N)N)C(=O)N[C@H](C(C)C)C(=O)N2 [listing 2 of 2 here] | – | – | – | – | – | – | – | – | – | – | – | – | – | – | – | – | – | – | – | – | remaining at 6 h [26]: 20%; remaining at 2 h [27]: > 80%; Activity (L02 [28]): Non-Toxic; hemolysis at 1 h, 16 ug/ml [29]: 10%; Activity (L02 [30]): Toxic; Activity (Erythrocyte [31]): Toxic |
| CC[C@H](C)[C@@H]1NC(=O)CNC(=O)[C@H](CCCNC(=N)N)NC(=O)[C@H](Cc2ccc(O)cc2)NC(=O)[C@@H]2CSSC[C@H](NC1=O)C(=O)N[C@@H](Cc1ccc(O)cc1)C(=O)N[C@@H](CCCNC(=N)N)C(=O)N[C@@H](CCCNC(=N)N)C(=O)N[C@H](C(=O)N[C@@H](CCCNC(=N)N)C(N)=O)CSSC[C@H](NC(=O)[C@H](Cc1c[nH]c3ccccc13)NC(=O)[C@@H](N)CCCCN)C(=O)N[C@@H](Cc1ccccc1)C(=O)N[C@@H](CCCNC(=N)N)C(=O)N[C@@H](C(C)C)C(=O)N2 | 16 to 64 (≈ 7.07 to 28.3 µM) | 16 to 64 (≈ 7.07 to 28.3 µM) | 8 (≈ 3.53 µM) | 16 to 64 (≈ 7.07 to 28.3 µM) | 16 to 64 (≈ 7.07 to 28.3 µM) | 2 | 4 to 8 (≈ 1.77 to 3.53 µM) | 16 (≈ 7.07 µM) | 16 to 64 (≈ 7.07 to 28.3 µM) | 8 (≈ 3.53 µM) | 8 to 16 (≈ 3.53 to 7.07 µM) | 16 to 64 (≈ 7.07 to 28.3 µM) | 4 (≈ 1.77 µM) | 8 (≈ 3.53 µM) | 16 to 64 (≈ 7.07 to 28.3 µM) | 2 to 4 (≈ 0.883 to 1.77 µM) | 8 (≈ 3.53 µM) | 4 (≈ 1.77 µM) | 8 (≈ 3.53 µM) | 4 (≈ 1.77 µM) | remaining at 2 h [27]: 20%; Activity (Erythrocyte [32]): Dose-dependent effect; Activity (Lysobacter enzymogenes [33]): inactive; MHC (Erythrocyte [34]): 0.25 µg/mL; Activity (L02 [28]): Non-Toxic; Activity (Lysobacter enzymogenes [35]): Dose-dependent effect; Activity (L02 [30]): Toxic; Activity (Erythrocyte [31]): Toxic; MIC (Staphylococcus aureus [23]): 8 µg/mL (≈ 3.53 µM); metabolised at 6 h [36]: 100%; MIC (Staphylococcus aureus [24]): 4 µg/mL (≈ 1.77 µM); MBC [25]: 16 to 64 µg/mL (≈ 7.07 to 28.3 µM) |
